# Read-outs that look alike come from different tables or passages of the source.
# Target: human Nav1.7 (Homo sapiens (Human), UniProt Q15858)
# Test: FLIPR sodium dye assay (CoroNa Green) with KCl and test article pre-incubation, recombinant Nav1.7/HEK293 cells
# Type: cell-based
# [1] = recombinant human Nav1.7 in HEK293, veratridine + scorpion venom stimulation
# human Nav1.7, sequence (Q15858 with tags, fused parts or gaps limits assumed): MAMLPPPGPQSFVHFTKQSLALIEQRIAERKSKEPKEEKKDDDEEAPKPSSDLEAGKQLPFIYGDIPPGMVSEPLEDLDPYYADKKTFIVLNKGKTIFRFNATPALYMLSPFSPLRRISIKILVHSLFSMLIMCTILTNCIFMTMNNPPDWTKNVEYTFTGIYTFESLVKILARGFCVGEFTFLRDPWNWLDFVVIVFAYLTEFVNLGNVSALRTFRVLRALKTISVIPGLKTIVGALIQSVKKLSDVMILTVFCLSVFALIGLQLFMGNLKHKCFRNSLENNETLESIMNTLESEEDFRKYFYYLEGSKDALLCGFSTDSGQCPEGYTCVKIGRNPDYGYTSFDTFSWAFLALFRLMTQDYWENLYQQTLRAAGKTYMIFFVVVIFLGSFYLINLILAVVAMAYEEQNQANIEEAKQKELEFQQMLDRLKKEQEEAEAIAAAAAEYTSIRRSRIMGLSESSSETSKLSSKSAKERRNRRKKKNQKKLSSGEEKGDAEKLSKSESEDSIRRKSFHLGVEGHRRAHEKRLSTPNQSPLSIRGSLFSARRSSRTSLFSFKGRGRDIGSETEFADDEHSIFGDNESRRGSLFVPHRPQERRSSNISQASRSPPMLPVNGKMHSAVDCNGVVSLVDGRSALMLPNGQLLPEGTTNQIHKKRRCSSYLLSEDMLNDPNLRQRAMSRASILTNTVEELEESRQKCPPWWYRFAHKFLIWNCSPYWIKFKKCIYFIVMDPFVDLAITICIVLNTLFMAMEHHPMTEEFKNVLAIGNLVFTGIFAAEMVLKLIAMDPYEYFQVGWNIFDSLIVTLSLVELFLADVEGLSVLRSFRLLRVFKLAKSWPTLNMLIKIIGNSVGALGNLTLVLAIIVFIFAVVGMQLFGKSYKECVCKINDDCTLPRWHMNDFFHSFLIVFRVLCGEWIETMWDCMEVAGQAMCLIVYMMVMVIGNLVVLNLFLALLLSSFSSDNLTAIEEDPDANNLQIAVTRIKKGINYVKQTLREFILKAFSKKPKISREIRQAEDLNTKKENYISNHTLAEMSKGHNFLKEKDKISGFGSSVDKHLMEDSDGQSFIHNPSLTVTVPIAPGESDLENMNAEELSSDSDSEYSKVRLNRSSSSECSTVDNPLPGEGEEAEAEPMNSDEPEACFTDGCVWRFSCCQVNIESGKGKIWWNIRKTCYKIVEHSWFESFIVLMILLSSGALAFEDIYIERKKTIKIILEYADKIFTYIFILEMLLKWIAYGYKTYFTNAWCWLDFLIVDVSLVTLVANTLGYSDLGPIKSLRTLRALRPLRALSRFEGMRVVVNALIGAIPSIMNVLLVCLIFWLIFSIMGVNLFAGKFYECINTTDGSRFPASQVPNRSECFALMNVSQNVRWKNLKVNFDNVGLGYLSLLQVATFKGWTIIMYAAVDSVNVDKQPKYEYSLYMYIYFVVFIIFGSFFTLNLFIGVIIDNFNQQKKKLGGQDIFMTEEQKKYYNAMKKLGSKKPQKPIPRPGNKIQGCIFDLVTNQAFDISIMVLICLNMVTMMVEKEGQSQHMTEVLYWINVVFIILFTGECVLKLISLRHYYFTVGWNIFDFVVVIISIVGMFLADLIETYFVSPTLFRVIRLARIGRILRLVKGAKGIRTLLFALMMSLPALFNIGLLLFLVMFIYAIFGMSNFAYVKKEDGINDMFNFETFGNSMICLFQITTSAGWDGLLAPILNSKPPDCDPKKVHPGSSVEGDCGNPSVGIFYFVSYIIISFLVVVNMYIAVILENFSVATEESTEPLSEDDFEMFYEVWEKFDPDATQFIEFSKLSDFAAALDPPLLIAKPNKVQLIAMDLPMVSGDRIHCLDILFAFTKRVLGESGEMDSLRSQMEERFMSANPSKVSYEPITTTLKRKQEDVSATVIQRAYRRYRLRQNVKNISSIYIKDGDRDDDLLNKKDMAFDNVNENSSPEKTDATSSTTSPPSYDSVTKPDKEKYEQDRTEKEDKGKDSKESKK
Compound,IC50 [1],IC50
"Cn1nccc1-c1cc(Cl)ccc1Oc1ccc2c(c1)CN(c1nccs1)S2(=O)=O [Compound 3, 5-(4-chloro-2-(1-methyl-1H-pyrazol-5-yl)phenoxy)-2-(thiazol-2-yl)-2,3-dihydrobenzo[d]isothiazole 1,1-dioxide]",9100 nM,–
"O=S1(=O)c2ccc(Oc3ccccc3-c3ccccc3)cc2CN1c1nccs1 [Compound 2, 5-([1,1′-biphenyl]-2-yloxy)-2-(thiazol-2-yl)-2,3-dihydrobenzo[d]isothiazole 1,1-dioxide]",> 20000 nM,–
"O=S1(=O)c2ccc(Oc3ccc(C(F)(F)F)cc3-c3ccnnc3)cc2CN1c1nccs1 [Compound 1, 5-(2-(pyridazin-4-yl)-4-(trifluoromethyl)phenoxy)-2-(thiazol-2-yl)-2,3-dihydrobenzo[d]isothiazole 1,1-dioxide]",1740 nM,–
"O=S1(=O)c2ccc(Oc3ccccc3-c3ccccc3)cc2CCN1c1nccs1 [Compound 6, 6-([1,1′-biphenyl]-2-yloxy)-2-(thiazol-2-yl)-3,4-dihydro-2H-benzo[e][1,2]thiazine 1,1-dioxide]",–,1700 nM
"O=S1(=O)c2ccc(N3CCC4(CC3)OCc3ccccc34)cc2CCN1c1nccs1 [Compound 5, 6-(3H-spiro[isobenzofuran-1,4′-piperidin]-1′-yl)-2-(thiazol-2-yl)-3,4-dihydro-2H-benzo[e][1,2]thiazine 1,1-dioxide]",–,766 nM
"O=S1(=O)c2ccc(-c3ccc(Oc4ccc(C(F)(F)F)cc4)cc3)cc2CCN1c1nccs1 [Compound 7, 2-(thiazol-2-yl)-6-(4-(4-(trifluoromethyl)phenoxy)phenyl)-3,4-dihydro-2H-benzo[e][1,2]thiazine 1,1-dioxide]",7090 nM,–
"O=S1(=O)c2ccc(N3CCC4(CC3)OCc3ccccc34)cc2CN1c1nccs1 [Compound 4, 5-(3H-spiro[isobenzofuran-1,4′-piperidin]-1′-yl)-2-(thiazol-2-yl)-2,3-dihydrobenzo[d]isothiazole 1,1-dioxide]",1380 nM,–

# From patent US9714252B2, “Cyclic sulfonamides as sodium channel blockers” (priority 2012, dated 2017)
